Results as given in patent publication EP2801357A1, “Carboxylated stilbenes for activating AMPK and sirtuins” (IMD Natural Solutions GmbH, priority 2013, dated 2014).
Marks after values point to notes of the source that are not given here.

Assays:
[1] = test system: normal human dermal fibroblasts (NHDF); test: Resazurin based cytotoxicity assay in NHDF; assay type: cell-based; conditions: 24 h and 48 h, 0.03 µM to 200 µM
Protocol: (§1) The effect of compound (I-1) on mitochondria biosynthesis was investigated in normal human dermal fibroblasts (NHDF). NHDF were obtained from PromoCell (Lot No. 006151; donor; from eyelid skin) and cultivated in Fibroblast Growth Medium (PromoCell; Cat. No. C-023020) supplemented with Supplement Mix (PromoCell; Cat. No. C-039215) at 37 °C /5% CO2. NHDF were seeded in flat-bottom 96-well plates (5000 cells / well) and incubated in said medium for 24 h or 48 h, respectively, with the compounds present in concentrations ranging from 0.03 µM to 200 µM. Mitochondria content was analyzed using the Mito-ID® Green Detection Kit for fluorescence microscopy (Enzo Life Sciences; Cat. No. ENZ-51055-K500). Fluorometric analysis was done using a Spectramax plate reader (Molecular Devices) and following the manufacturer's protocol. Cytotoxicity was determined in parallel by fluorometric readout using the Resazurin Based In Vitro Toxicology Assay Kit (Sigma Aldrich, Cat. No. TOX-8), and following the manufacturer's protocol.

[2] = molecular target: T1, Sirt3 (Homo sapiens, UniProt Q9NTG7); test: SIRT3 Fluorimetric Drug Discovery Kit, Sirt3 activation; assay type: biochemical
T1 construct: purchased BioMol, Hamburg, Germany
T1 sequence (Q9NTG7 1-399): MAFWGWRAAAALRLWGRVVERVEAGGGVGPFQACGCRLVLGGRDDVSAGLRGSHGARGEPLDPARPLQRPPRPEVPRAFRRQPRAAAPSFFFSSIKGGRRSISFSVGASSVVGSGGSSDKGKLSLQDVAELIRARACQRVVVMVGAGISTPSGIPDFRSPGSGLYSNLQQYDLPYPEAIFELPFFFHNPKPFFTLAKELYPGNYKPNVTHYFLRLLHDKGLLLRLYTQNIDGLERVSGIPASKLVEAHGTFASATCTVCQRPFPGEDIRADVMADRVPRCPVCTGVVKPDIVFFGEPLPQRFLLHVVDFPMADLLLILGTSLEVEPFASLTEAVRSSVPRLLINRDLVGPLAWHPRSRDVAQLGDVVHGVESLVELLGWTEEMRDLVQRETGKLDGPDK

[3] = molecular target: T2, Sirt2 (Homo sapiens, UniProt Q8IXJ6); test: SIRT2 Fluorimetric Drug Discovery Kit, Sirt2 activation; assay type: biochemical
T2 construct: purchased BioMol, Hamburg, Germany
T2 sequence (Q8IXJ6 1-389): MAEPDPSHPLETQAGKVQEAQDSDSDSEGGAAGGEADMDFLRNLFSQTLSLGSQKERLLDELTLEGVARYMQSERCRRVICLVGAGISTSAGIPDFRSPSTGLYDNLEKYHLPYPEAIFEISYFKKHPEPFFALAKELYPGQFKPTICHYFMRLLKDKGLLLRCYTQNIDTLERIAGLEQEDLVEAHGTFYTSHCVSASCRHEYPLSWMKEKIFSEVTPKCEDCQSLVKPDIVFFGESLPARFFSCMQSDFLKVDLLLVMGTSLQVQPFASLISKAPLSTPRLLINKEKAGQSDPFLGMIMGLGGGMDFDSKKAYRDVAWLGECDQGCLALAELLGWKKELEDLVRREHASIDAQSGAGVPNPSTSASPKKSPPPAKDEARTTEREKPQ

[4] = test system: 5'-AMP-activated protein kinase (AMPK); test: Western blot analysis of AMPK phosphorylation in NHEK; assay type: cell-based, human; conditions: 48 h;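 for P-AMPK: Chemiluminescence band density of P-AMPK measured with Multigauge software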
[5] = test system: normal human dermal fibroblasts (NHDF); test: Mitochondria content of NHDF, Mito-ID Green Detection Kit; assay type: cell-based
Protocol: as §1

[6] = Experiment 1, Membrane 1, 10 µM
[7] = Experiment 1, Membrane 1, 30 µM

CCOC(=O)c1c(O)cccc1/C=C/c1ccc(OCC)cc1 [(I-1)]
cytotoxicity or loss of cell viability [1]: no cytotoxicity or loss of cell viability
remaining activity at 0.3 µM ([2]; Example 2, Table 5, 0.3 µM, read-out: Activity [% control]): 109%
remaining activity at 1 µM ([2]; Example 2, Table 5, 1.0 µM, read-out: Activity [% control]): 124%
remaining activity at 3 µM ([2]; Example 2, Table 5, 3.0 µM, read-out: Activity [% control]): 156%
remaining activity at 10 µM ([2]; Example 2, Table 5, 10.0 µM, read-out: Activity [% control]): 216%
remaining activity at 30 µM ([2]; Example 2, Table 5, 30.0 µM, read-out: Activity [% control]): 247%
EC300 ([2]; Example 2, Table 6, Sirt3, footnote for (I-1): clear activation in dose-response curve visible): >30* µM
remaining activity at 0.3 µM ([3]; Example 2, Table 4, 0.3 µM, read-out: Activity [% control]): 114%
remaining activity at 1 µM ([3]; Example 2, Table 4, 1.0 µM, read-out: Activity [% control]): 142%
remaining activity at 3 µM ([3]; Example 2, Table 4, 3.0 µM, read-out: Activity [% control]): 204%
remaining activity at 10 µM ([3]; Example 2, Table 4, 10.0 µM, read-out: Activity [% control]): 530%
remaining activity at 30 µM ([3]; Example 2, Table 4, 30.0 µM, read-out: Activity [% control]): 914%
EC300 ([3]; Example 2, Table 6, Sirt2): 4.9 µM
AMPK phosphorylation [% Control] ([4]; Experiment 1, Membrane 1, 3 µM): 60 % Control
P-AMPK ([4]; Experiment 1, Membrane 1, 3 µM): 123 AU/mm^2
Ratio P-AMPK/ GAPDH ([4]; Experiment 1, Membrane 1, 3 µM): 0.26
AMPK phosphorylation [% Control] [4, 6]: 90 % Control
P-AMPK [4, 6]: 202 AU/mm^2
Ratio P-AMPK/ GAPDH [4, 6]: 0.38
AMPK phosphorylation [% Control] [4, 7]: 1006 % Control
P-AMPK [4, 7]: 2554 AU/mm^2
Ratio P-AMPK/ GAPDH [4, 7]: 4.26
Signal intensity [% Control] ([5]; 24 h incubation time, 0.03 µM): 100 % Control
Signal intensity [% Control] ([5]; 24 h incubation time, 0.09 µM): 99 % Control
Signal intensity [% Control] ([5]; 24 h incubation time, 0.27 µM): 100 % Control
Signal intensity [% Control] ([5]; 24 h incubation time, 0.82 µM): 101 % Control
Signal intensity [% Control] ([5]; 24 h incubation time, 2.47 µM): 103 % Control
Signal intensity [% Control] ([5]; 24 h incubation time, 7.41 µM): 114 % Control
Signal intensity [% Control] ([5]; 24 h incubation time, 22.22 µM): 182 % Control
Signal intensity [% Control] ([5]; 24 h incubation time, 66.67 µM): 354 % Control
Signal intensity [% Control] ([5]; 24 h incubation time, 200.00 µM): 906 % Control
Signal intensity [% Control] ([5]; 48 h incubation time, 0.03 µM): 97 % Control
Signal intensity [% Control] ([5]; 48 h incubation time, 0.09 µM): 92 % Control
Signal intensity [% Control] ([5]; 48 h incubation time, 0.27 µM): 91 % Control
Signal intensity [% Control] ([5]; 48 h incubation time, 0.82 µM): 93 % Control
Signal intensity [% Control] ([5]; 48 h incubation time, 2.47 µM): 94 % Control
Signal intensity [% Control] ([5]; 48 h incubation time, 7.41 µM): 103 % Control
Signal intensity [% Control] ([5]; 48 h incubation time, 22.22 µM): 147 % Control
Signal intensity [% Control] ([5]; 48 h incubation time, 66.67 µM): 293 % Control
Signal intensity [% Control] ([5]; 48 h incubation time, 200.00 µM): 765 % Control
concentrations with significant enhancement of mitochondria biosynthesis ([5]; NHDF, 24 h and 48 h): ≥ 10 µM
